“Also recorded” adds a separate entry of the source. Structures can show the parent of a compound that is named as a salt.
These compounds were tested against T1, CYP1A2 (Homo sapiens, UniProt P05177) (assay: in vitro). Conditions: 1 μM active ingredient, Rh CYP1A2-mediated phenacetin O-deethylation, test dataset of 202 herb ingredients.
T1 sequence (P05177 1-516): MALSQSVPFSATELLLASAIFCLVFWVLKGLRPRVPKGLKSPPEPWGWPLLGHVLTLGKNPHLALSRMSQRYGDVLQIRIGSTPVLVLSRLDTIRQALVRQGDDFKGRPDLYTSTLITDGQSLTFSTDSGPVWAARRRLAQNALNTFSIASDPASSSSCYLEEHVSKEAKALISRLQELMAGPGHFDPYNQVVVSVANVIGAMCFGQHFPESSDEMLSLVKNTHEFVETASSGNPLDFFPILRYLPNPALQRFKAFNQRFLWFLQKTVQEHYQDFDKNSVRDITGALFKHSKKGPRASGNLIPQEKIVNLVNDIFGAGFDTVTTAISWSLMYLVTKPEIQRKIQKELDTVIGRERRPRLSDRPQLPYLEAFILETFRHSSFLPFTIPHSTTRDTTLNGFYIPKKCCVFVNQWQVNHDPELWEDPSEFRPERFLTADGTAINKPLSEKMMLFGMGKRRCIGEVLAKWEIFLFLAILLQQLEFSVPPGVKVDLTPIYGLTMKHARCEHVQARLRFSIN
Format: biochemical
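Further: recombinant CYP1A2 incubated for 1 h at 37 °C, with the reaction started by an NADPH-generating system.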

| Compound | % of Control Indication Activity (Mean) [%] |
| --- | --- |
| COc1cc(-c2oc3cc(O)cc(O)c3c(=O)c2O[C@@H]2O[C@H](CO[C@@H]3O[C@@H](C)[C@H](O)[C@@H](O)[C@H]3O)[C@@H](O)[C@H](O)[C@H]2O[C@@H]2O[C@@H](C)[C@H](O)[C@@H](O)[C@H]2O)ccc1O [Typhaneoside] | > 90 |
| C/C=C(/C)C(=O)O[C@H]1[C@@H](OC(C)=O)c2c(ccc3ccc(=O)oc23)OC1(C)C [Praeruptorin A] | > 90 |
| Salvianolic acid B | > 90 |
| C=C1C(=O)O[C@@H]2C[C@@]3(C)CCC[C@H](C)C3=C[C@H]12 [Alantolactone] | > 90 |
| Veratramin | > 90 |
| COc1cc(O)cc(O)c1C(=O)/C=C/c1ccccc1 [Cardamonin] | > 90 |
| COc1c2c(cc3oc(C)cc(=O)c13)OC(C(C)(C)O[C@@H]1O[C@H](CO)[C@@H](O)[C@H](O)[C@H]1O)C2 (some centres unmarked) [5-O-Methylvisammioside] | > 90 |
| Cc1c(O)c(C)c2oc(-c3ccc(O)cc3)cc(=O)c2c1O [Syzalterin] | > 90 |
| Ginkgolide B | > 90 |

Same assay, conditions: 1 μM test concentration

| Compound | inhibitory activity to CYP1A2 (10% or greater inhibition at 1 μM) |
| --- | --- |
| COc1cc(-c2oc3cc(O)c(OC)c(O)c3c(=O)c2O)ccc1O [zhang 817, Spinacetin] | found to have inhibition of CYP1A2 activity; also recorded: confirmed to have inhibitory activities to CYP1A2 |
| O=c1ccc2ccc(Oc3cc4cc(O)c(O)cc4oc3=O)cc2o1 [zhang 300, Edgeworthin] | found to have inhibition of CYP1A2 activity; also recorded: confirmed to have inhibitory activities to CYP1A2 |

Same assay, conditions: 1 μM test concentration; listed as 284

| Compound | inhibitory activity to CYP1A2 (10% or greater inhibition at 1 μM) |
| --- | --- |
| COc1cc(C[C@H]2COC(=O)[C@@H]2Cc2ccc(O)c(OC)c2)ccc1O [zhang 284, (−)-Matairesinol] | found to have inhibition of CYP1A2 activity; also recorded: confirmed to have inhibitory activities to CYP1A2 |

Same assay, conditions: human, recombinant enzyme, pH 7.4

| Compound | activity at 1 h, 1 μM [%] |
| --- | --- |
| O=C1C[C@@H](c2ccc(O[C@@H]3O[C@H](CO)[C@@H](O)[C@H](O)[C@H]3O)cc2)Oc2cc(O)ccc21 [Liquiritin] | > 90 |
| O=C(O)c1cc(O)c(O)c(O)c1 [Gallic acid] | > 90 |
| O=c1cc(-c2ccccc2)oc2cc(O)c(O)c(O)c12 [Baicalein] | > 90 |
| O=C/C=C/c1ccccc1 [Cinnamaldehyde] | > 90 |
| C=C1CC[C@H]2C(=C)CC[C@H]3C(=C)C(=O)O[C@@H]3[C@@H]12 [Dehydrocostus lactone] | > 90 |
| COc1cc(C(=O)O)ccc1O [Vanillic acid] | > 90 |
| COc1cc(O)c2c(=O)cc(-c3ccc(O)c(O)c3)oc2c1 [zhang 272, 3′-hydroxy-Genkwanin] | < 90 |
| O=C1c2cccc(O)c2C(=O)c2c(O)cc(CO)cc21 [Aloe-emodin] | > 90 |
| CN1CCc2cc3c(cc2C(=O)Cc2ccc4c(c2C1)OCO4)OCO3 [Protopine] | > 90 |
| COC(=O)c1c2c(c3ccccc3c1O)OC(C)(C)C=C2 [Mollugin] | > 90 |

Same assay, conditions: human, recombinant enzyme, pH 7.4; 1 μM active ingredient, Rh CYP1A2-mediated phenacetin O-deethylation, test dataset of 202 herb ingredients; read-out: % of Control Indication Activity (Mean)

| Compound | activity at 1 h, 1 μM [%] |
| --- | --- |
| C=CCc1ccc(O)c(OC)c1 [Eugenol] | > 90 |
| COc1ccc2cc1Oc1ccc(cc1)C[C@H]1c3cc(c(OC)cc3CCN1C)Oc1c(O)c(OC)cc3c1[C@H](C2)N(C)CC3 [Fangchinoline] | > 90 |

Same assay, conditions: human, recombinant human CYP1A2, pH 7.4, probe phenacetin (25 μM), O-deethylation to acetaminophen; 1 μM active ingredient, Rh CYP1A2-mediated phenacetin O-deethylation, test dataset of 202 herb ingredients; read-out: % of Control Indication Activity (Mean)

| Compound | activity at 1 h, 1 μM [%] |
| --- | --- |
| COc1ccc(-c2coc3cc(O)ccc3c2=O)cc1 [Formononetin] | > 90 |
| CC1(C)CC[C@]2(C(=O)O)CC[C@]3(C)C(=CC[C@@H]4[C@@]5(C)CC[C@H](O)[C@@](C)(CO)[C@@H]5CC[C@]43C)[C@@H]2C1 [Hederagenin] | > 90 |
| O=C1/C(=C2\Nc3ccccc3C2=O)Nc2ccccc21 [Indigo] | > 90 |
| O=c1c(O)c(-c2ccc(O)c(O)c2)oc2cc(O)cc(O)c12 [Quercetin] | > 90 |
| COc1ccc(C[C@H]2COC(=O)[C@@H]2Cc2ccc(O[C@@H]3O[C@H](CO)[C@@H](O)[C@H](O)[C@H]3O)c(OC)c2)cc1OC [Arctiin] | > 90 |
| COc1ccc2cc3[n+](cc2c1OC)CCc1cc2c(cc1-3)OCO2 [Berberine Hydrochloride] | > 90 |
| CC(C)=CCC[C@](C)(O[C@@H]1O[C@H](CO)[C@@H](O)[C@H](O)[C@H]1O)[C@H]1CC[C@]2(C)[C@@H]1[C@H](O)C[C@@H]1[C@@]3(C)CC[C@H](O)C(C)(C)[C@@H]3[C@@H](O)C[C@]12C [Ginsenoside F1] | > 90 |
| Cc1coc2c1C(=O)C(=O)c1c-2ccc2c1CCCC2(C)C [Tanshinone IIA] | 28.3 |
| Cc1ccc(C(C)C)cc1O [Carvacrol] | > 90 |
| C[C@@]12C[C@@]3(O)O[C@@H](O1)[C@]1(COC(=O)c4ccccc4)[C@H]3C[C@@]12O[C@@H]1O[C@H](CO)[C@@H](O)[C@H](O)[C@H]1O [Paeoniflorin] | > 90 |
| C[N+](C)(C)CC(=O)O [Betaine] | > 90 |
| C=C1C(=O)[C@]23[C@H](O)[C@H]1CC[C@H]2[C@@]12CO[C@]3(O)[C@@H](O)[C@@H]1C(C)(C)CC[C@@H]2O [Oridonin] | > 90 |
| O=C(O)c1ccc(O)c(O)c1 [Protocatechuic acid] | > 90 |
| COC(=O)C1=CC[C@@]23CC[C@@H]([C@@](C)(/C=C/C=C(\C)C(=O)O)OC2=O)[C@@]3(OC(C)=O)CC1 [Pseudolaric acid B] | > 90 |
| O=C(O)/C=C/c1ccc(O)c(O)c1 [Caffeic acid] | > 90 |
| OC[C@H]1O[C@@H](O[C@@H]2OC=C[C@H]3[C@H](O)[C@@H]4O[C@]4(CO)[C@@H]23)[C@H](O)[C@@H](O)[C@@H]1O [Catalpo l] | > 90 |
| CC1(C)[C@@H](O)CC[C@]2(C)[C@H]3C(=O)C=C4[C@@H]5C[C@@](C)(C(=O)O)CC[C@]5(C)CC[C@@]4(C)[C@]3(C)CC[C@@H]12 [Glycyrrhetinic acid] | > 90 |
| COc1c2ccc(-c3ccccc3)oc-2cc(=O)c1C [Dracorhodin] | 21.1 |
| COc1ccc(/C=C/C(=O)O)cc1O [Isoferulic acid] | > 90 |
| COc1c(O)cc(O)c2c(=O)cc(-c3ccccc3)oc12 [Wogonin] | 74.6 |
| COc1cc(O)cc2c1C(=O)C[C@@H](c1ccccc1)O2 [Alpinetin] | > 90 |

Same assay, conditions: human, recombinant human CYP1A2, pH 7.4, probe phenacetin (25 μM), O-deethylation to acetaminophen; 1 μM test compound, 25 μM phenacetin, average of duplicate determinations; read-out: % of Control Indication Activity

| Compound | activity at 1 h, 1 μM [%] |
| --- | --- |
| COc1cc(-c2oc3cc(O)c(OC)c(O)c3c(=O)c2O)ccc1O [zhang 817, Spinacetin] | < 90 |
| O=c1ccc2ccc(Oc3cc4cc(O)c(O)cc4oc3=O)cc2o1 [zhang 300, Edgeworthin] | < 90 |
| COc1cc(C[C@H]2COC(=O)[C@@H]2Cc2ccc(O)c(OC)c2)ccc1O [zhang 284, (−)-Matairesinol] | < 90 |
| CC(C)=CCC/C(C)=C/Cc1c(O)cc(O)c2c(=O)c3c(O)c4c(cc3oc12)OCO4 [zhang 89, 1,6,8-trihydroxy-2,3-methylenedioxy-5-geranylxanthone] | > 90 |
| O=c1c(O[C@@H]2OC[C@@H](O)[C@@H](O)[C@@H]2O)c(-c2ccc(O)c(O)c2)oc2cc(O)cc(O)c12 [zhang 205, quercetin-3-O-β-D-arabinopyranoside] | > 90 |
| COc1cc(C(O)C(CO)Oc2ccc(/C=C\CO)cc2OC)ccc1O (single isomer, unassigned; (-)) [zhang 779, (−)-Threo-guaiacylglycerol-8-O-4′-(coniferyl alcohol) ether] | > 90 |
| O=c1c(OC2OC(CO)C(O)C2O)c(-c2ccc(O)c(O)c2)oc2cc(O)cc(O)c12 [zhang 206, quercetin-3-O-α-D-arabinofuranose] | > 90 |
| COc1cc(O)c2c(=O)c(O[C@@H]3O[C@H](CO)[C@@H](O)[C@H](O)[C@H]3O)c(-c3ccc(O)c(O)c3)oc2c1 [zhang 84, rhamnetin 3-O-β-D-glucopyranoside] | > 90 |

Same assay, conditions: recombinant enzyme

| Compound | % of Control Indication Activity (Mean) |
| --- | --- |
| C=C1CC[C@@H]2[C@](C)(CO)[C@H](O)CC[C@@]2(C)[C@@H]1/C=C/C1=CCOC1=O [Dehydroandrographolide] | > 90 |

Same assay, conditions: recombinant enzyme, pH 7.4

| Compound | activity [%] |
| --- | --- |
| CN[C@@H](C)[C@H](O)c1ccccc1 [Ephedrine] | > 90 |

Same assay, conditions: recombinant enzyme, pH 7.4; 1 μM active ingredient, Rh CYP1A2-mediated phenacetin O-deethylation, test dataset of 202 herb ingredients; read-out: % of Control Indication Activity (Mean)

| Compound | activity [%] | activity at 1 h, 1 μM [%] |
| --- | --- | --- |
| CCCCCCCCCC(C)=O [Methyl nonylketone] | > 90 | – |
| CC(C)=CCOc1c2occc2cc2ccc(=O)oc12 [Imperatorin] | > 90 | – |
| COc1cccc2c1cc([N+](=O)[O-])c1c(C(=O)O)cc3c(c12)OCO3 [Aristolochic Acid] | – | > 90 |
| C[C@@H]1O[C@@H](Oc2c(-c3ccc(O)c(O)c3)oc3cc(O)cc(O)c3c2=O)[C@H](O)[C@H](O)[C@H]1O [Quercitrin] | > 90 | – |
| CC1=C2C(=O)[C@H]3[C@@H](CC=C4C[C@@H](O)CC[C@@]43C)[C@@H]2CC[C@]12O[C@@H]1C[C@H](C)CN[C@H]1[C@H]2C [Jervine] | – | > 90 |
| CC1=C2C[C@H]3[C@@H](CC=C4C[C@@H](O)CC[C@@]43C)[C@@H]2CC[C@]12O[C@@H]1C[C@H](C)CN[C@H]1[C@H]2C [Cyclopamine] | – | > 90 |
| COc1ccc(C=O)cc1 [Anisaldehyde] | > 90 | – |

Source: article PMC3116189, “Novel Natural Inhibitors of CYP1A2 Identified by in Silico and in Vitro Screening” (International Journal of Molecular Sciences, 2011)
